In paper PMC3593249 (Biochemical pharmacology, 2013):
Values joined by “and” are separate entries in the source; they are usually repeats but may differ in a detail not shown here. Equal entries are not always repeated.

Experiments:
[1] = molecular target: T1, α7 nAChR S36I mutant (Homo sapiens, UniProt P36544, S58I); experiment: Residual desensitization; type: cell-based; settings: read-out: IC50 (RD curve), potency for producing long-lasting desensitization, 12 s applications
[2] = molecular target: T2, α7 nAChR S36A mutant (Homo sapiens, UniProt P36544, S58A); experiment: Concentration-response curves; type: cell-based; settings: for Imax: maximal response relative to the maximal response from ACh (ACh = 1); for EC50: net charge CRC, parenthetical = curve-fit error
T2 sequence (P36544 23-502 S58A): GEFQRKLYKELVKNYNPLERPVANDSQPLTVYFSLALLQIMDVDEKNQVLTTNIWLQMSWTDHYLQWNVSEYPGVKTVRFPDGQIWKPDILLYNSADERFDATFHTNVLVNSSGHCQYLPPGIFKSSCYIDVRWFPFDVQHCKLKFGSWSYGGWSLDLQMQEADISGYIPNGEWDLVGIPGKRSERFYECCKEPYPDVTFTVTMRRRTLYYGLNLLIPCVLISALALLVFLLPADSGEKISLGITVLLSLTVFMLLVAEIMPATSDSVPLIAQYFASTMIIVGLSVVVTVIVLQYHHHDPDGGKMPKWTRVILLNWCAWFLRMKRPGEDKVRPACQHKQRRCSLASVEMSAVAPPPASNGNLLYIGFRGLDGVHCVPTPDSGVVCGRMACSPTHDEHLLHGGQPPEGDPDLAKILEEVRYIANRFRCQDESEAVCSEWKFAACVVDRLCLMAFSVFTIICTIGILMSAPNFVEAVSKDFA

[3] = molecular target: T3, α7 nAChR S36G mutant (Homo sapiens, UniProt P36544, S58G); experiment: Residual desensitization; type: cell-based; settings: read-out: IC50 (RD curve), potency for producing long-lasting desensitization, 12 s applications
T3 sequence (P36544 23-502 S58G): as the sequence (P36544 23-502 S58A) above, with A36G counted along it

[4] = molecular target: T4, α7 nAChR S36V mutant (Homo sapiens, UniProt P36544, S58V); experiment: Concentration-response curves; type: cell-based; settings: for Imax: maximal response relative to the maximal response from ACh (ACh = 1); for EC50: net charge CRC, parenthetical = curve-fit error
T4 sequence (P36544 23-502 S58V): as the sequence (P36544 23-502 S58A) above, with A36V counted along it

[5] = molecular target: T2, α7 nAChR S36A mutant; experiment: Residual desensitization; type: cell-based; settings: read-out: IC50 (RD curve), potency for producing long-lasting desensitization, 12 s applications
[6] = molecular target: T5, α7 nAChR S36C mutant (Homo sapiens, UniProt P36544, S58C); experiment: Concentration-response curves; type: cell-based; settings: for Imax: maximal response relative to the maximal response from ACh (ACh = 1); for EC50: net charge CRC, parenthetical = curve-fit error
T5 sequence (P36544 23-502 S58C): as the sequence (P36544 23-502 S58A) above, with A36C counted along it

[7] = molecular target: T4, α7 nAChR S36V mutant; experiment: Residual desensitization; type: cell-based; settings: read-out: IC50 (RD curve), potency for producing long-lasting desensitization, 12 s applications
[8] = molecular target: T1, α7 nAChR S36I mutant; experiment: Concentration-response curves; type: cell-based; settings: for Imax: maximal response relative to the maximal response from ACh (ACh = 1); for EC50: net charge CRC, parenthetical = curve-fit error
[9] = molecular target: T6, α7 nAChR S36T mutant (Homo sapiens, UniProt P36544, S58T); experiment: Residual desensitization; type: cell-based; settings: read-out: IC50 (RD curve), potency for producing long-lasting desensitization, 12 s applications
T6 sequence (P36544 23-502 S58T): as the sequence (P36544 23-502 S58A) above, with A36T counted along it

[10] = molecular target: T5, α7 nAChR S36C mutant; experiment: Residual desensitization; type: cell-based; settings: read-out: IC50 (RD curve), potency for producing long-lasting desensitization, 12 s applications
[11] = molecular target: T3, α7 nAChR S36G mutant; type: cell-based; settings: for Imax: maximal response relative to the maximal response from ACh (ACh = 1); for EC50: net charge CRC, parenthetical = curve-fit error
[12] = molecular target: T7, WT α7 nAChR (Homo sapiens, UniProt P36544); experiment: Residual desensitization; type: cell-based; settings: for IC50: read-out: IC50 (RD curve), potency for producing long-lasting desensitization, 12 s applications
T7 sequence (P36544 23-502): as the sequence (P36544 23-502 S58A) above, with A36S counted along it

[13] = molecular target: T6, α7 nAChR S36T mutant; experiment: Concentration-response curves; type: cell-based; settings: for Imax: maximal response relative to the maximal response from ACh (ACh = 1); for EC50: net charge CRC, parenthetical = curve-fit error
[14] = molecular target: T7, WT α7 nAChR; experiment: Induction of Ds: 30 µM PNU-120596 applied after 5-minute drug bath; type: cell-based; settings: for desensitized state after high-concentration incubation (PNU-120596 response): high concentration: BA 300 µM, 4MeBA 100 µM
[15] = molecular target: T7, WT α7 nAChR; experiment: Concentration-response curves; type: cell-based; settings: for Imax: maximal response relative to the maximal response from ACh (ACh = 1); for EC50: net charge CRC, potency for agonism, parenthetical = curve-fit error
[16] = tested on: α7 nAChR; settings: cited from earlier work
[17] = molecular target: T7, WT α7 nAChR; experiment: 5-minute bath incubation, 1 mM ACh probe and post-control ACh applications; type: cell-based
[18] = molecular target: T3, α7 nAChR S36G mutant; experiment: as above; type: cell-based; settings: 30 µM drug bath, 5 minutes, then 1 mM ACh probe

T1 sequence (P36544 23-502 S58I): as the sequence (P36544 23-502 S58A) above, with A36I counted along it

Structure (SMILES) | IC50 [1] [µM] | Imax [2] | EC50 [2] [µM] | IC50 [3] [µM] | Imax [4] | EC50 [4] [µM] | IC50 [5] [µM] | Imax [6] | EC50 [6] [µM] | IC50 [7] [µM] | Imax [8] | EC50 [8] [µM] | IC50 [9] [µM] | IC50 [10] [µM] | Imax [11] | EC50 [11] [µM] | IC50 [12] [µM] | Imax [13] | EC50 [13] [µM] | Imax [15] | also measured
C(=C1CCCN=C1c1cccnc1)c1ccccc1 [BA, benzylidene anabaseine] | > 300 | 0.45(0.02) | 27 | 357 | 0.27(0.05) | 27 | 91 | 0.30(0.01) | 22 | 217 | 0.18(0.02) | 81 | 720 | 189 | 0.316(0.003) | 44 | 270 | 0.19(0.01) | 68 | 0.31(0.01) | desensitized state after high-concentration incubation (PNU-120596 response) [14]: induced exclusively into Di; EC50 [15]: 40 µM and 39 µM
COc1ccc(/C=C2\CCCN=C2c2cccnc2)c(OC)c1 [GTS-21, 3-(2,4-dimethoxybenzylidene)anabaseine] | – | – | – | – | – | – | – | – | – | – | – | – | – | – | – | – | – | – | – | – | RD production [16]: significant amounts of RD
Cc1ccc(C=C2CCCN=C2c2cccnc2)cc1 [4MeBA, 3-(4-methylbenzylidene)anabaseine] | 153 | 0.19(0.04) | 7.9 | 51 | 0.15(0.04) | 3.5 | 145 | 0.14(0.02) | 5.5 | 91 | 0.088(0.007) | 17.6 | 450 | 52 | 0.31(0.02) | 9.5 | 110 | 0.19(0.02) | 34 | 0.14(0.01) | reduction of post-control ACh responses ([12]; at concentration of greatest evoked response, approximately 300 µM): 80%; desensitized state after high-concentration incubation (PNU-120596 response) [14]: induced exclusively into Di; EC50 [15]: 30 µM and 29 µM
Oc1ccc(/C=C2\CCCN=C2c2cccnc2)cc1 [4OHBA, (E)-3-(4-hydroxybenzylidene)anabaseine] | > 300 | 0.73(0.03) | 0.57 | 134 | 0.50(0.03) | 0.25 | 203 | 0.63(0.02) | 0.75 | 61 | 0.46(0.03) | 2.3 | > 300 | 233 | 0.89(0.06) | 0.53 | > 300 | 0.50(0.01) | 5.9 | 0.385(0.006) | recovery during post-control ACh applications after 5-minute incubation ([17]; 30 µM drug bath, 5 minutes): fully recovered; post-control ACh responses, low versus high concentration incubation ([17]; 4OHBA low 3 µM, high 30 µM): no significant difference; reduction of post-control ACh responses ([12]; at concentrations required for maximal evoked responses, 30 µM – 300 µM): 10–20%; IC50 (RD curve) ([12]; potency for producing long-lasting desensitization, 12 s applications): far greater than the concentration range studied; induction of Ds (response to PNU-120596 after drug bath) ([14]; 30 µM drug bath, 5 minutes, 30 µM PNU-120596): relatively little Ds; ACh control responses after 5-minute incubation [18]: nearly complete suppression of the ACh control responses; EC50 [15]: 6 µM and 5.5 µM
Oc1ccc(C=C2CCCN=C2c2cccnc2)c(O)c1 [2,4diOHBA, 3-(2,4-dihydroxybenzylidene)anabaseine] | – | – | – | – | – | – | – | – | – | – | – | – | – | – | – | – | – | – | – | – | RD production [16]: practically none
